Results on two compounds are retold here after ChEMBL document CHEMBL1212922, “Crystal structure-based selective targeting of the pyridoxal 5'-phosphate dependent enzyme kynurenine aminotransferase II for cognitive enhancement” (J Med Chem, 2010).

Test [1] has as its target T1, Kynureninase (Homo sapiens) (UniProt Q16719).
T1 sequence (whole entry): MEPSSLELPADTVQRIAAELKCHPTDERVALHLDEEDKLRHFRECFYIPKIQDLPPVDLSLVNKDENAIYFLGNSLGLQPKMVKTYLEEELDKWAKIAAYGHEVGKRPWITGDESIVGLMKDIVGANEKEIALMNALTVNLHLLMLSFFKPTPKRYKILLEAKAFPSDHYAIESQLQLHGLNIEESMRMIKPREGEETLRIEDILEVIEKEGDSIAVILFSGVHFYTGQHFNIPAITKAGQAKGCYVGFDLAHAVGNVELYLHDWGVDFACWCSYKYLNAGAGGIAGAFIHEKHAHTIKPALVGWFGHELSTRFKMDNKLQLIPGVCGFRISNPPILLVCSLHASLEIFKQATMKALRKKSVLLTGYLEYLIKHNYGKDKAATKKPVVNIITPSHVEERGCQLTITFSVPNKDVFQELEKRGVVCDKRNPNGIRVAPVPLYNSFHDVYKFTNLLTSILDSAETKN
Description: Inhibition of kynureninase in human prefrontal cortex homogenates at 100 uM. In kind it is tissue-based.

In test [2] the target is T2, Kynurenine/alpha-aminoadipate aminotransferase, mitochondrial (Homo sapiens, UniProt Q8N5Z0). Briefly: Inhibition of KAT2 in human prefrontal cortex homogenates. In kind it is tissue-based.
Test [3] concerns the target T3, Kynurenine--oxoglutarate transaminase 1 (Homo sapiens, UniProt Q16773).
T3 sequence (Q16773 whole entry): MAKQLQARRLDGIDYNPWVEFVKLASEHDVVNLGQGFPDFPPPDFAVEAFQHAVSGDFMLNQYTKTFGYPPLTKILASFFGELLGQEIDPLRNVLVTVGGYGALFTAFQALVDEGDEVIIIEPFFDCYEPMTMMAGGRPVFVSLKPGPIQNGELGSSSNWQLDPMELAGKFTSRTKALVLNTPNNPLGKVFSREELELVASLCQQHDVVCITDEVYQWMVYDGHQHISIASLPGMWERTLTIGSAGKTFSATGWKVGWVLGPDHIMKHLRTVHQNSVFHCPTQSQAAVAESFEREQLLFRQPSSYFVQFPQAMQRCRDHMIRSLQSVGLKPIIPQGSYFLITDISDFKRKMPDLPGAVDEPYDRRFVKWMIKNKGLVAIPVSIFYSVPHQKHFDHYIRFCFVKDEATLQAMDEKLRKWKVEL
Briefly: Inhibition of human recombinant MBP-KAT1 expressed in Escherichia coli BL21 assessed as conversion of L-kynurenine to kynurenic acid after 1 hr.

The target in test [4] is T3, Kynurenine--oxoglutarate transaminase 1. Description: Inhibition of KAT1 in human prefrontal cortex homogenates. The test is classed as tissue-based.
In test [5] the target is Kynurenine/alpha-aminoadipate aminotransferase, mitochondrial (Rattus norvegicus, UniProt Q64602). Briefly: Inhibition of rat brain KAT2.
For test [6], the target named is T2, Kynurenine/alpha-aminoadipate aminotransferase, mitochondrial. Description: Inhibition of human recombinant MBP-KAT2 expressed in HEK293 cells assessed as conversion of L-kynurenine to kynurenic acid after 1 hr.
Test [7] has as its target Kynurenine 3-monooxygenase (Homo sapiens) (UniProt O15229). Briefly: Inhibition of kynurenine 3-monooxygenase in human prefrontal cortex homogenates at 100 uM. The test is classed as tissue-based.

T2 sequence (Q8N5Z0 whole entry): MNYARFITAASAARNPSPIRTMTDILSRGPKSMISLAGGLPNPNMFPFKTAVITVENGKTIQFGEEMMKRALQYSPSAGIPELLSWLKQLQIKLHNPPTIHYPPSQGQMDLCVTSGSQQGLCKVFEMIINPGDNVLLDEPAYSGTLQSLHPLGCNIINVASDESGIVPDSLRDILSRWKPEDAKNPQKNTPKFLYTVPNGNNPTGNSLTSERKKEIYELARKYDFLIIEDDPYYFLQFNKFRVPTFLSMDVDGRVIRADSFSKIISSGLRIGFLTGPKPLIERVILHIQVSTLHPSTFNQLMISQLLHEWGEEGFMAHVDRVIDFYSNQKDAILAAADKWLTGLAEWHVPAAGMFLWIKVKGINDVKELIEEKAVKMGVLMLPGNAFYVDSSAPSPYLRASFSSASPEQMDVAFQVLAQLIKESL
Kynurenine/alpha-aminoadipate aminotransferase, mitochondrial (Rattus norvegicus, UniProt Q64602), sequence (Q64602 whole entry): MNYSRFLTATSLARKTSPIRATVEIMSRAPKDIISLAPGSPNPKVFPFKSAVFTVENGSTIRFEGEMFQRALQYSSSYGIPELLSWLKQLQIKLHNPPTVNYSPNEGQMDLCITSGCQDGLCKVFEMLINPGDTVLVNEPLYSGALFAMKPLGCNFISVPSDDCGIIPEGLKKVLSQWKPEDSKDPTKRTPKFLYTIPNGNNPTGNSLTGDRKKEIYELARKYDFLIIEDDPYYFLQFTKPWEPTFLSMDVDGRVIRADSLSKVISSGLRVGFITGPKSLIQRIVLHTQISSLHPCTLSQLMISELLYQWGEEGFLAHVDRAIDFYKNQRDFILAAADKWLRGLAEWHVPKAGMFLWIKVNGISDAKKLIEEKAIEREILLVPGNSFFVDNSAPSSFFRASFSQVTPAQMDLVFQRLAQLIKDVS
Kynurenine 3-monooxygenase (Homo sapiens), sequence (O15229 whole entry, looked up): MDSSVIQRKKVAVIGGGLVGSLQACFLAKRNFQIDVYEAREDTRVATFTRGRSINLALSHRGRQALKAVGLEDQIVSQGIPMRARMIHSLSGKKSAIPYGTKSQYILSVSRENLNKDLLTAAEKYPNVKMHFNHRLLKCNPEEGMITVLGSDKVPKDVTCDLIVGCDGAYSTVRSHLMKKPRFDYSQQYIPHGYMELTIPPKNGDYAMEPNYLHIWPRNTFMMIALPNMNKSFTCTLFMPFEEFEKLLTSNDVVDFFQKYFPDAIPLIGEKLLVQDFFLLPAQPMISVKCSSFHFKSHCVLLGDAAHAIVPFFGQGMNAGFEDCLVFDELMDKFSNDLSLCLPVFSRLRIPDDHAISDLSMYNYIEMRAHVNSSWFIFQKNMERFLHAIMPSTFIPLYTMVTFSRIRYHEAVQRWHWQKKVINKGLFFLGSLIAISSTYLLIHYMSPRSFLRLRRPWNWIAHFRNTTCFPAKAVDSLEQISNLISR

Take `C[C@H]1COc2c(N3CCN(N)CC3)c(F)cc3c(=O)c(C(=O)O)cn1c23`: the inhibition in test [1] turned out to be 5.1%; in test [7], 8.3%. Besides, the IC50 in test [2] was 1000 nM; in test [3], above 30000 nM; in test [4], above 30000 nM; in test [5] it was 1000 nM; in test [6] it was 910 nM.
For the compound `C[C@@H]1COc2c(N3CCN(N)CC3)c(F)cc3c(=O)c(C(=O)O)cn1c23`, the IC50 in test [6] amounted to 1500 nM.
